From PubChem BioAssay AID328 (DTP/NCI, 2004)
Where “and” joins values, the source holds several entries; their conditions need not be identical. Equal entries are not always repeated. Toxic doses and inconclusive results are not listed.

Test system: BDF1 mice, P388 leukemia ip, median survival T/C
Experiment: NCI In Vivo Anticancer Drug Screen. Data for tumor model P388 Leukemia (intraperitoneal) in B6D2F1 (BDF1) mice
Details: endpoint: median survival time, higher = longer survival
In short: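 Read-out is survival of treated animals expressed relative to the vehicle group, as a T/C ratio.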

[1] = dose: 50.0 mg/kg/injection, schedule: Q01DX009 (ip), vehicle: Klucel (hydroxypropylcellulose) (HPC)
[2] = dose: 100.0 mg/kg/injection, schedule: Q04DX003 (ip), vehicle: Klucel (hydroxypropylcellulose) (HPC)
[3] = dose: 200.0 mg/kg/injection, schedule: Q04DX003 (ip), vehicle: Klucel (hydroxypropylcellulose) (HPC)
[4] = dose: 100.0 mg/kg/injection, schedule: Q01DX009 (ip), vehicle: saline with Tween-80

In the case of `CCOC(=O)c1cnc(=S)[nH]c1N`, the T/C [1] is reported as 95 % of control, the T/C (dose: 50.0 mg/kg/injection, schedule: Q04DX003 (ip), vehicle: Klucel (hydroxypropylcellulose) (HPC)) is reported as 109 % of control and the T/C (dose: 100.0 mg/kg/injection, schedule: Q01DX009 (ip), vehicle: Klucel (hydroxypropylcellulose) (HPC)) is reported as 100 % of control. The T/C [2] was 100 % of control, the T/C (dose: 200.0 mg/kg/injection, schedule: Q01DX009 (ip), vehicle: Klucel (hydroxypropylcellulose) (HPC)) was 95 % of control and the T/C [3] was 109 % of control.
For `CC(C)CCCCCCCCCCCCC(=O)NCC(=O)NC1C(O)C(O)C(Nc2ncnc3nc[nH]c23)OC1C(O)CO` (stereo not given), the T/C (dose: 0.09 mg/kg/injection, schedule: Q01DX010 (ip), vehicle: carboxymethylcellulose (CMC)) was 160 % of control, the T/C (dose: 0.13 mg/kg/injection, schedule: Q01DX010 (ip), vehicle: steriod suspending solution) was 90 % of control and the T/C (dose: 0.18 mg/kg/injection, schedule: Q01DX010 (ip), vehicle: carboxymethylcellulose (CMC)) was 180 % of control. The T/C (dose: 0.37 mg/kg/injection, schedule: Q01DX010 (ip), vehicle: carboxymethylcellulose (CMC)) was 175 % of control and the T/C (dose: 0.37 mg/kg/injection, schedule: Q01DX010 (ip), vehicle: steriod suspending solution) was 165 % of control.
With `O=C(O)c1c(-c2ccccc2)[nH]c2cc(Cl)ccc2c1=O` the T/C (dose: 6.25 mg/kg/injection, schedule: Q01DX009 (ip), vehicle: Klucel (hydroxypropylcellulose) (HPC)) was 95 % of control, the T/C (dose: 12.5 mg/kg/injection, schedule: Q01DX009 (ip), vehicle: Klucel (hydroxypropylcellulose) (HPC)) was 90 % of control and 109 % of control and the T/C (dose: 25.0 mg/kg/injection, schedule: Q01DX009 (ip), vehicle: Klucel (hydroxypropylcellulose) (HPC)) was 100 % of control. The T/C [1] was 95 % of control, the T/C (dose: 50.0 mg/kg/injection, schedule: Q01DX009 (ip), vehicle: saline with Tween-80) was 114 % of control and the T/C (dose: 50.0 mg/kg/injection, schedule: Q04DX003 (ip), vehicle: saline with Tween-80) was 122 % of control. The T/C (dose: 90.0 mg/kg/injection, schedule: Q04DX003 (ip), vehicle: saline with Tween-80) was 109 % of control, the T/C [4] was 118 % of control and the T/C (dose: 100.0 mg/kg/injection, schedule: Q04DX003 (ip), vehicle: saline with Tween-80) was 113 % of control. The T/C (dose: 133.0 mg/kg/injection, schedule: Q04DX003 (ip), vehicle: saline with Tween-80) was 112 % of control and 113 % of control, the T/C (dose: 200.0 mg/kg/injection, schedule: Q01DX009 (ip), vehicle: saline with Tween-80) was 100 % of control and the T/C (dose: 200.0 mg/kg/injection, schedule: Q04DX003 (ip), vehicle: saline with Tween-80) was 108 % of control and 109 % of control. For the same compound, the T/C (dose: 300.0 mg/kg/injection, schedule: Q04DX003 (ip), vehicle: saline with Tween-80) was 104 % of control.
`O=[N+]([O-])c1ccc2c(N=Nc3c(O)ccc4ccccc34)c(O)cc(S(=O)(=O)O)c2c1` was tested, and the T/C (dose: 25.0 mg/kg/injection, schedule: Q01DX001 (ip), vehicle: saline with Tween-80) was 104 % of control, the T/C (dose: 50.0 mg/kg/injection, schedule: Q01DX001 (ip), vehicle: saline with Tween-80) was 100 % of control and the T/C (dose: 100.0 mg/kg/injection, schedule: Q01DX001 (ip), vehicle: saline with Tween-80) was 100 % of control. For the same compound, the T/C [4] was 104 % of control and the T/C (dose: 400.0 mg/kg/injection, schedule: Q01DX009 (ip), vehicle: saline with Tween-80) was 100 % of control.
In the case of `CC(=O)C(C)[P+](c1ccccc1)(c1ccccc1)c1ccccc1` (stereo not given), the T/C (dose: 2.0 mg/kg/injection, schedule: Q01DX009 (ip), vehicle: water) is reported as 95 % of control, the T/C (dose: 4.0 mg/kg/injection, schedule: Q01DX009 (ip), vehicle: water) is reported as 100 % of control and the T/C (dose: 8.0 mg/kg/injection, schedule: Q01DX009 (ip), vehicle: water) is reported as 93 % of control. The T/C (dose: 12.5 mg/kg/injection, schedule: Q01DX009 (ip), vehicle: water) was 96 % of control, the T/C (dose: 16.0 mg/kg/injection, schedule: Q01DX009 (ip), vehicle: water) was 103 % of control and the T/C (dose: 25.0 mg/kg/injection, schedule: Q01DX009 (ip), vehicle: water) was 91 % of control.
For `CCCC(=O)c1c(C)cc(C)cc1C`, the T/C [2] was 110 % of control, the T/C [3] was 110 % of control and the T/C (dose: 400.0 mg/kg/injection, schedule: Q04DX003 (ip), vehicle: Klucel (hydroxypropylcellulose) (HPC)) was 120 % of control.
`COC(=O)c1cc(=O)nc(NN=C2CCCCC2)s1` was tested, and the T/C (dose: 50.0 mg/kg/injection, schedule: Q01DX005 (ip), vehicle: saline with Tween-80) was 99 % of control and the T/C (dose: 100.0 mg/kg/injection, schedule: Q01DX005 (ip), vehicle: saline with Tween-80) was 103 % of control.
